Values of other authors as cited in patent US10760135B2, “Methods for predicting pancreatic cancer treatment response” (priority 2016, dated 2020).
Structures can show the parent of a compound that is named as a salt.

Test system: advanced PDAC
Conditions: first-line treatment, patients with advanced PDAC

## Nc1ccn([C@@H]2O[C@H](CO)[C@@H](O)C2(F)F)c(=O)n1 [Gemcitabine, 1-(2′-Deoxy-2′,2′-difluoro-[beta]-D-ribofuranosyl)-4-aminopyrimidin-2-one hydrochloride]
  5-year survival rate: 2%
